From patent US12281122B1, “PI3K inhibitors” (Cogent Biosciences, Inc., priority 2023, dated 2025)
pIC50: −log10 of the molar value.

Assays:
PI3Kα H1047R = PI3Kα H1047R (Homo sapiens, UniProt P42336, H1047R); assay: PI3Kα H1047R enzyme assay (Transcreener ADP2 TR-FRET Red Assay); assay type: biochemical; details: purified recombinant full-length protein; 2 hours pre-incubation with compound
How it was run: (§1)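 Purified recombinant full-length enzymes pre-incubated 2 h at room temperature with compounds (11-point 1:3 dilutions, typically 50,000–0.85 nM), then started with ATP/PI(4,5)P2 diC8 and run 60 min at room temperature in 40 mM HEPES pH 7.5, 20 mM NaCl, 25 mM MgCl2, 0.01% Triton X-100. ADP detected by TR-FRET 665/615 ratio; IC50 from four-parameter fit of percent of control.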

[1] = tested on: SKBR3 (PI3Kα-Wild Type) cell line; assay: HTRF phospho-AKT(S473) cell assay in SKBR3 cells; assay type: cell-based, human; details: Homo sapiens, SK-BR-3; SKBR3 (PI3Kα-Wild Type) cells, HTRF phospho-AKT(S473), 2 hours compound incubation, PDGF-BB stimulated
How it was run: (§2)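 T47D: RPMI + 10% FBS + 0.2 units/mL insulin, top 5 μM. SKBR3: McCoy's 5A + 10% FBS, top 10 μM, 70 ng/ml PDGF-BB last 15 min. Both: 12-pt 1:3, 2 h, 37° C, max 0.5% DMSO; HTRF pAKT(S473); IC50.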

PI3Kα = PI3Kα (Homo sapiens, UniProt P42336); assay: PI3Kα enzyme assay (Transcreener ADP2 TR-FRET Red Assay); assay type: biochemical; details: purified recombinant full-length protein; 2 hours pre-incubation with compound; read-out: PI3Kα WT IC50
PI3Kα, sequence (P42336 whole entry): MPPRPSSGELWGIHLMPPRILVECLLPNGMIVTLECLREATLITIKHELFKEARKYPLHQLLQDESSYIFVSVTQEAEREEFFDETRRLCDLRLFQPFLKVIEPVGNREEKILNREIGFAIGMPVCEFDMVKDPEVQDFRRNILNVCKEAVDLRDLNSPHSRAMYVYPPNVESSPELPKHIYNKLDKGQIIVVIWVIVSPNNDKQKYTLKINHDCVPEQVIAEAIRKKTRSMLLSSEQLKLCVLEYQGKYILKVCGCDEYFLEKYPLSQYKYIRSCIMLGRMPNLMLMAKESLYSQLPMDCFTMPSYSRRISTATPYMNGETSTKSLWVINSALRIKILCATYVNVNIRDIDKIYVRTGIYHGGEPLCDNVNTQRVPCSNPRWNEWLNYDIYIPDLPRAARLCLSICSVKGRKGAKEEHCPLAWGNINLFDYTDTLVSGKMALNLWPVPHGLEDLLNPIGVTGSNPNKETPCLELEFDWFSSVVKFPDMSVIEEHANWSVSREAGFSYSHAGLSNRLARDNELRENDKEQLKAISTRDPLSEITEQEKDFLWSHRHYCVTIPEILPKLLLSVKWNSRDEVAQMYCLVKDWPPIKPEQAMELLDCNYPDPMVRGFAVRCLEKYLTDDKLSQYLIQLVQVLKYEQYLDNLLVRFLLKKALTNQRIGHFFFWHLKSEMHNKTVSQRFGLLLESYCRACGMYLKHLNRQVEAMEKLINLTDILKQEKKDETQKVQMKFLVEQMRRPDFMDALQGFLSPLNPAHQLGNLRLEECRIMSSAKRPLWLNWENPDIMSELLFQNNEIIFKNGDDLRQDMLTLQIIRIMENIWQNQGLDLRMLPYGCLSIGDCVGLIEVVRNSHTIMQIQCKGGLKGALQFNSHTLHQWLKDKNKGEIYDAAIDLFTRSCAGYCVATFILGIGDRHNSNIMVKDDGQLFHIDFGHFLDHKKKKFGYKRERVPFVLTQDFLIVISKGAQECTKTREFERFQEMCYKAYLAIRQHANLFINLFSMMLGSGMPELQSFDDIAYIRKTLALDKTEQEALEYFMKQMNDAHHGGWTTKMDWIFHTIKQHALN
PI3Kα, sequence (P27986 2-724 partner): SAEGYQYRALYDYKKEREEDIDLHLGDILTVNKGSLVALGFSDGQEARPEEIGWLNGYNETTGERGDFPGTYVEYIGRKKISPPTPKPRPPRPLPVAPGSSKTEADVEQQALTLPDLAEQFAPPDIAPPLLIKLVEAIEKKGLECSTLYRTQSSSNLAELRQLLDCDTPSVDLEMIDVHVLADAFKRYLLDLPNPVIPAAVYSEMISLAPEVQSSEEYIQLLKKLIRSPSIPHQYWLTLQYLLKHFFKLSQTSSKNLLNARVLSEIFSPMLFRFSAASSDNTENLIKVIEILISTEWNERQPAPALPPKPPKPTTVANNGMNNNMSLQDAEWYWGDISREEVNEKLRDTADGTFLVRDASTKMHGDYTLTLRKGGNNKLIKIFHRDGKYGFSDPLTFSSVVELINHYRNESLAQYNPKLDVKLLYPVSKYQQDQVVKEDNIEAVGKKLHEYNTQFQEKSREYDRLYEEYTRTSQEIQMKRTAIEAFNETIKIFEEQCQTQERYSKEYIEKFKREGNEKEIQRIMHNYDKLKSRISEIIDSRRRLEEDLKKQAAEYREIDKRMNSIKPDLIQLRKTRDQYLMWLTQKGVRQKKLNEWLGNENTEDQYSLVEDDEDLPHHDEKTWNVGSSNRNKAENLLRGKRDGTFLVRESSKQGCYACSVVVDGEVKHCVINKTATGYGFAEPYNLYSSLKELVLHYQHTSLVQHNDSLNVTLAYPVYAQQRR
How it was run: as §1

[2] = tested on: T47D (PI3Kα-H1047R) cell line; assay: HTRF phospho-AKT(S473) cell assay in T47D cells; assay type: cell-based, human; details: Homo sapiens; T47D (PI3Kα-H1047R) cells, HTRF phospho-AKT(S473), 2 hours compound incubation
How it was run: as §2

PI3Kα H1047R, sequence (P42336 whole entry H1047R): as the sequence (P42336 whole entry) above, with H1047R counted along it
PI3Kα H1047R, sequence (P27986 2-724 partner): as the sequence (P27986 2-724 partner) above

pIC50 (PI3Kα H1047R)	pIC50 [1]	pIC50 (PI3Kα)	pIC50 [2]	SMILES
6.30 to 6.60	5.30 to 6.00	≤ 6.00	6.30 to 6.60	Cc1cc([C@@H](C)Nc2ccc(Cl)nc2C(=O)NS(C)(=O)=O)c2nc(NCC3CC3)n(C)c(=O)c2c1 [Compound 8, (R)-6-chloro-3-((1-(2-((cyclopropylmethyl)amino)-3,6-dimethyl-4-oxo-3,4-dihydroquinazolin-8-yl)ethyl)amino)-N-(methylsulfonyl) picolinamide]
≤ 6.00	≤ 5.30	≤ 6.00	5.30 to 6.00	C[C@@H](Nc1cccnc1C(=O)NS(C)(=O)=O)c1cccc2c(=O)n(C)c(N3Cc4ccc(F)cc4C3)nc12 [Compound 59, (R)-3-((1-(2-(5-fluoroisoindolin-2-yl)-3-methyl-4-oxo-3,4-dihydroquinazolin-8-yl)ethyl)amino)-N-(methylsulfonyl) picolinamide]
≤ 6.00	5.30 to 6.00	≤ 6.00	5.30 to 6.00	Cc1cc([C@@H](C)Nc2ccc(F)cc2C(=O)NS(C)(=O)=O)c2nc(N3Cc4ccc(F)cc4C3)n(C)c(=O)c2c1 [Compound 63, (R)-5-fluoro-2-((1-(2-(5-fluoro-isoindolin-2-yl)-3,6-dimethyl-4-oxo-3,4-dihydroquinazolin-8-yl)ethyl)amino)-N-(methylsulfonyl) benzamide]
6.00 to 6.30	5.30 to 6.00	≤ 6.00	> 6.60	Cc1cc([C@@H](C)Nc2ccc(Cl)nc2C(=O)NS(C)(=O)=O)c2nc(N3C[C@H]4C[C@@H]3CO4)n(C)c(=O)c2c1 [Compound 26, 3-(((R)-1-(2-((1R,4R)-2-oxa-5-azabicyclo[2.2.1]heptan-5-yl)-3,6-dimethyl-4-oxo-3,4-dihydroquinazolin-8-yl)ethyl)amino)-6-chloro-N-(methylsulfonyl) picolinamide]
≤ 6.00	5.30 to 6.00	≤ 6.00	6.30 to 6.60	Cc1cc([C@@H](C)Nc2ccc(Cl)nc2C(=O)NS(C)(=O)=O)c2nc(-c3cncc(F)c3)n(C)c(=O)c2c1 [Compound 83, (R)-6-chloro-3-((1-(2-(5-fluoropyridin-3-yl)-3,6-dimethyl-4-oxo-3,4-dihydroquinazolin-8-yl)ethyl)amino)-N-(methylsulfonyl) picolinamide]
≤ 6.00	≤ 5.30	≤ 6.00	5.30 to 6.00	COc1nc(Cl)ccc1N[C@H](C)c1cc(C)cc2c(=O)n(C)c(N3Cc4ccc(F)cc4C3)nc12 [Compound 96, (R)-8-(1-((6-chloro-2-methoxypyridin-3-yl)amino)ethyl)-2-(5-fluoroisoindolin-2-yl)-3,6-dimethylquinazolin-4(3H)-one]
≤ 6.00	5.30 to 6.00	≤ 6.00	5.30 to 6.00	Cc1cc([C@@H](C)Nc2ccc(Cl)cc2C(=O)NS(C)(=O)=O)c2nc(N3Cc4ccc(F)cc4C3)n(C)c(=O)c2c1 [Compound 64, (R)-5-chloro-2-((1-(2-(5-fluoro-isoindolin-2-yl)-3,6-dimethyl-4-oxo-3,4-dihydroquinazolin-8-yl)ethyl)amino)-N-(methylsulfonyl) benzamide]
≤ 6.00	5.30 to 6.00	≤ 6.00	6.30 to 6.60	Cc1cc([C@@H](C)Nc2cccnc2C(=O)NS(C)(=O)=O)c2nc(N3Cc4ccc(F)cc4C3)n(C)c(=O)c2c1 [Compound 58, (R)-3-((1-(2-(5-fluoroisoindolin-2-yl)-3,6-dimethyl-4-oxo-3,4-dihydroquinazolin-8-yl)ethyl)amino)-N-(methylsulfonyl) picolinamide]
≤ 6.00	5.30 to 6.00	≤ 6.00	5.30 to 6.00	C[C@@H](Nc1cccnc1C(=O)NS(C)(=O)=O)c1cc(F)cc2c(=O)n(C)c(N3Cc4ccc(F)cc4C3)nc12 [Compound 60, (R)-3-((1-(6-fluoro-2-(5-fluoro-isoindolin-2-yl)-3-methyl-4-oxo-3,4-dihydroquinazolin-8-yl)ethyl)amino)-N-(methylsulfonyl) picolinamide]
6.00 to 6.30	5.30 to 6.00	≤ 6.00	> 6.60	Cc1cc([C@@H](C)Nc2ccc(Cl)nc2C(=O)NS(C)(=O)=O)c2nc(N3C[C@@H]4C[C@H]3CO4)n(C)c(=O)c2c1 [Compound 27, 3-(((R)-1-(2-((1S,4S)-2-oxa-5-azabicyclo[2.2.1]heptan-5-yl)-3,6-dimethyl-4-oxo-3,4-dihydroquinazolin-8-yl)ethyl)amino)-6-chloro-N-(methylsulfonyl) picolinamide]
≤ 6.00	≤ 5.30	≤ 6.00	6.00 to 6.30	Cc1cc([C@@H](C)Nc2ccc(C)[nH]c2=O)c2nc(N3Cc4ccc(F)cc4C3)n(C)c(=O)c2c1 [Compound 97, (R)-2-(5-fluoroisoindolin-2-yl)-3,6-dimethyl-8-(1-((6-methyl-2-oxo-1,2-dihydropyridin-3-yl)amino)ethyl)quinazolin-4(3H)-one]

More lines, now with the values behind:

SMILES	pIC50 (PI3Kα H1047R)	pIC50 [1]	pIC50 (PI3Kα)	pIC50 [2]
C[C@@H](Nc1ccc(Cl)nc1C(=O)NS(C)(=O)=O)c1cc(F)cc2c(=O)n(C)c(N3CC4CC4C3)nc12 (stereo partly drawn) [Compound 29, 3-(((1R)-1-(2-(3-azabicyclo[3.1.0]hexan-3-yl)-6-fluoro-3-methyl-4-oxo-3,4-dihydroquinazolin-8-yl)ethyl)amino)-6-chloro-N-(methylsulfonyl) picolinamide]	6.30 to 6.60	5.30 to 6.00	≤ 6.00	6.30 to 6.60
Cc1cc([C@@H](C)Nc2ccc(F)cc2C(=O)NS(C)(=O)=O)c2nc(N3CCC(F)(F)CC3)n(C)c(=O)c2c1 [Compound 62, (R)-2-((1-(2-(4,4-difluoropiperidin-1-yl)-3,6-dimethyl-4-oxo-3,4-dihydroquinazolin-8-yl)ethyl)amino)-5-fluoro-N-(methyl-sulfonyl)benzamide]	> 7.00	5.30 to 6.00	≤ 6.00	5.30 to 6.00
Cc1cc([C@@H](C)Nc2ccc(Cl)nc2S(=O)(=O)NC(=O)C2CC2)c2nc(N3Cc4ccc(F)cc4C3)n(C)c(=O)c2c1 [Compound 79, (R)-N-((6-chloro-3-((1-(2-(5-fluoroisoindolin-2-yl)-3,6-dimethyl-4-oxo-3,4-dihydroquinazolin-8-yl)ethyl)amino)pyridin-2-yl)sulfonyl)cyclopropane-carboxamide]	6.60 to 7.00	≤ 5.30	≤ 6.00	6.30 to 6.60
Cc1cc([C@@H](C)Nc2cc(F)cnc2C(=O)NS(C)(=O)=O)c2nc(N3Cc4ccc(F)cc4C3)n(C)c(=O)c2c1 [Compound 68, (R)-5-fluoro-3-((1-(2-(5-fluoro-isoindolin-2-yl)-3,6-dimethyl-4-oxo-3,4-dihydroquinazolin-8-yl)ethyl)amino)-N-(methylsulfonyl) picolinamide]	≤ 6.00	≤ 5.30	≤ 6.00	5.30 to 6.00
C[C@@H](Nc1ccc(Cl)nc1C(=O)NS(C)(=O)=O)c1cccc2c(=O)n(C)c(N3Cc4ccc(F)cc4C3)nc12 [Compound 23, (R)-6-chloro-3-((1-(2-(5-fluoroisoindolin-2-yl)-3-methyl-4-oxo-3,4-dihydroquinazolin-8-yl)ethyl)amino)-N-(methylsulfonyl) picolinamide]	> 7.00	5.30 to 6.00	≤ 6.00	6.00 to 6.30
Cc1cc([C@@H](C)Nc2ccc(Cl)nc2C(=O)NS(C)(=O)=O)c2nc(N3Cc4cnn(CC5CC5)c4C3)n(C)c(=O)c2c1 [Compound 47, (R)-6-chloro-3-((1-(2-(1-(cyclopropylmethyl)-4,6-dihydropyrrolo[3,4-c]pyrazol-5(1H)-yl)-3,6-dimethyl-4-oxo-3,4-dihydroquinazolin-8-yl)ethyl)amino)-N-(methylsulfonyl) picolinamide]	> 7.00	5.30 to 6.00	6.00 to 6.30	> 6.60
Cc1cc([C@@H](C)Nc2ccc(Cl)nc2C(=O)NS(C)(=O)=O)c2nc(C3CCCCC3)n(C)c(=O)c2c1 [Compound 92, (R)-6-chloro-3-((1-(2-cyclohexyl-3,6-dimethyl-4-oxo-3,4-dihydroquinazolin-8-yl)ethyl)amino)-N-(methylsulfonyl) picolinamide]	> 7.00	5.30 to 6.00	≤ 6.00	> 6.60
Cc1cc([C@@H](C)Nc2ccc(Cl)nc2C(=O)NS(C)(=O)=O)c2nc(NCC3CC(F)(F)C3)n(C)c(=O)c2c1 [Compound 20, (R)-6-chloro-3-((1-(2-(((3,3-difluorocyclobutyl)methyl)amino)-3,6-dimethyl-4-oxo-3,4-dihydroquinazolin-8-yl)ethyl)amino)-N-(methylsulfonyl) picolinamide]	≤ 6.00	5.30 to 6.00	≤ 6.00	6.00 to 6.30
C[C@@H](Nc1ccc(Cl)nc1C(=O)NS(C)(=O)=O)c1cc(F)cc2c(=O)n(C)c(N3Cc4cn(C)nc4C3)nc12 [Compound 37, (R)-6-chloro-3-((1-(6-fluoro-3-methyl-2-(2-methyl-2,6-dihydropyrrolo[3,4-c]pyrazol-5(4H)-yl)-4-oxo-3,4-dihydroquinazolin-8-yl)ethyl)amino)-N-(methylsulfonyl) picolinamide]	6.30 to 6.60	6.00 to 6.30	≤ 6.00	> 6.60
